Assay results: patent US20010001713A1, “Composition and method for measuring the foliar uptake of agrochemicals” (priority 1999, published 2001)
Like-named read-outs stand apart in the source and are kept apart here.

Assays:
rice plants [1] = details: in vivo
cucumber leaves [2] = experiment: Selection of a penetrant for the absorption of dimethomorph by cucumber leaves; details: 24 hours after spraying, dimethomorph 250 ppm (Forum wettable powder) + penetrant 1,000 ppm
Experimental: (§1) Forum wettable powder(a 25% dimethomorph formulation, Dongbang Agro Co., Ltd., Korea) was dispersed in water and added thereto were one of the penetrant candidate materials listed in Table 4 and Congo Red to obtain an agrochemical solution containing dimethomorph, a penetrant candidate and Congo Red at concentrations of 250 ppm, 1,000 ppm and 200 ppm, respectively. A control containing no penetrant was also prepared.
The agrochemical solution and control thus prepared were sprayed on leaves of each of six cucumber plants having 4 to 5 leaves, as well as on six glass plates(10 cm×10 cm). Immediately after the spraying, the sprayed cucumber leaves from 3 cucumber plants and three glass plates were washed with 12 ml portion of 30% acetonitrile-aqueous solution for 3 minutes to obtain standard wash extracts and controls.
The remaining three cucumber pots and three glass plates were stored in the dark at room temperature, and the same procedure was repeated at 24 hours after the spraying.
The concentrations of dimethomorph and Congo Red in the wash extracts were measured by HPLC(Spectra 200 Programmable Wavelength Detector, acetonitrile-water solvent programming, 42%-80%) . The wash extracts obtained immediately after the spraying were used as standard solutions, and Congo Red, as an internal standard. The foliar uptake rate of dimethomorph was calculated by comparing the concentrations of dimethomorph and Congo Red in the wash extracts obtained immediately after the spraying and at 24 hours after the spraying.

rice plants [3] = details: in vivo; for Time-dependent Uptake by Rice(%) (Mean ± S.D.(n = 3)) I.A. / Time-dependent Uptake by Rice(%) (Mean ± S.D.(n = 3)) after 1 hr / Time-dependent Uptake by Rice(%) (Mean ± S.D.(n = 3)) after 3 hrs / Time-dependent Uptake by Rice(%) (Mean ± S.D.(n = 3)) after 6 hrs / Time-dependent Uptake by Rice(%) (Mean ± S.D.(n = 3)) after 12 hrs / Time-dependent Uptake by Rice(%) (Mean ± S.D.(n = 3)) after 24 hrs: Dongjin byeo
cucumber leaves [4] = details: Baktadagi, in vivo, 0 h
Experimental: (§2) (Step 1) Preparation of a solution containing agrochemicals and Congo Red
(§3) Since dimethomorph is not readily absorbed by the plant, 0.1% of stearylamine ethoxylate(SN, moles of ethylene oxide added: 10) was added as an adjuvant to enhance its foliar uptake.
(§4) Cucumber seeds(Baktadagi, Hung Nong Seed Co., Ltd., Korea) were sowed in disposable resin cup pots (id 47 mm×50 mm) at a density of three seeds per pot and cultivated in a greenhouse. Upon the complete development of cotyledons, the cucumber plants were each transplanted to a disposable resin cup pot(id 66 mm×h 66 mm) and cultivated in a greenhouse until the development of 4 to 5 leaves.
(§5) 18 pots of cucumber plants thus prepared were put in a spray booth and sprayed with the agrochemical solution prepared in (Step 1) in an amount of 80 l/ha. Further, 15 glass plates(10 cm×10 cm) were also sprayed with the same agrochemical solution prepared in (Step 1) in an amount of 80 l /ha.
(§6) Immediately after the spraying in (Step 2) , one leaf with its petiole attached was cut off from each of three cucumber plants, put in a test tube containing the appropriate washing solution and washed by agitating the tube with bottom-side up at 60 to 70 rpm for 2 minutes to obtain three wash extracts. Three glass plates were subjected to the same washing procedure in a petri dish(id 15.2 cm) to obtain three control wash extracts.
(§7) The remaining 15 cucumber plants and 12 glass plates were stored in the dark at room temperature, and the same washing procedure as above was repeated at 1 hour, 3 hours, 6 hours, 12 hours and 24 hours after the spraying.
(§8) The concentrations of the agrochemicals in the wash extracts were measured by HPLC(Spectra 200 Programmable Wavelength Detector, acetonitrile-water solvent programming, 42%-80%). The wash extracts obtained immediately after the spraying were used as standard solutions, and Congo Red, as an internal standard.

[5] = Glass plate control run of Example 3 (loss of dimethomorph other than by plant uptake); details: 24 hours after spraying, stored in the dark at room temperature
Text: The use of a control plate serves the purpose of determining the loss of agrochemical due to reasons other than plant uptake.
as §1
The agrochemical solution and control thus prepared were sprayed on leaves of each of six cucumber plants having 4 to 5 leaves, as well as on six glass plates(10 cm×10 cm). Immediately after the spraying, the sprayed cucumber leaves from 3 cucumber plants and three glass plates were washed with 12 ml portion of 30% acetonitrile-aqueous solution for 3 minutes to obtain standard wash extracts and controls. […]
The concentrations of dimethomorph and Congo Red in the wash extracts were measured by HPLC(Spectra 200 Programmable Wavelength Detector, acetonitrile-water solvent programming, 42%-80%) . […] The foliar uptake rate of dimethomorph was calculated by comparing the concentrations of dimethomorph and Congo Red in the wash extracts obtained immediately after the spraying and at 24 hours after the spraying.

cucumber leaves [6] = experiment: Foliar uptake of agrochemicals by cucumber plants (Congo Red tracer method); details: for Time-dependent Uptake by Cucumber(%) (Mean ± S.D.(n = 3)) after 24 hrs: 24 hrs after spraying
Experimental: as §2, §3, §4, §5, §6, §7, §8

laurylamine ethoxylate [laurylamine ethoxylate(7)]
Recovery (%) of tricyclazole (rice plants [1]): 35.4%
Uptake (%) of tricyclazole (rice plants [1]): 64.6%
Recovery (%) of dimethomorph (cucumber leaves [2]): 96.3%
Uptake (%) of dimethomorph (cucumber leaves [2]): 3.7%

nonylphenol ethoxylate [nonylphenol ethoxylate(10)]
Recovery (%) of tricyclazole (rice plants [1]): 80.6%
Uptake (%) of tricyclazole (rice plants [1]): 19.4%
Recovery (%) of dimethomorph (cucumber leaves [2]): 99.8%
Uptake (%) of dimethomorph (cucumber leaves [2]): 0.2%

stearylamine ethoxylate [stearylamine ethoxylate(10)]
Recovery (%) of tricyclazole (rice plants [1]): 46.1%
Uptake (%) of tricyclazole (rice plants [1]): 53.9%
Recovery (%) of dimethomorph (cucumber leaves [2]): 85.5%
Uptake (%) of dimethomorph (cucumber leaves [2]): 14.5%

castor oil ethoxylate [castor oil ethoxylate(17)]
Recovery (%) of tricyclazole (rice plants [1]): 63.7%
Uptake (%) of tricyclazole (rice plants [1]): 36.3%

CCOP(=O)(Sc1ccccc1)Sc1ccccc1 [Edifenphos, edifenphos]
Time-dependent Uptake by Rice(%) (Mean ± S.D.(n = 3)) I.A. (rice plants [3]): 0 ± 1.3%
Time-dependent Uptake by Rice(%) (Mean ± S.D.(n = 3)) after 1 hr (rice plants [3]): 1.5 ± 1.1%
Time-dependent Uptake by Rice(%) (Mean ± S.D.(n = 3)) after 3 hrs (rice plants [3]): 4.9 ± 0.7%
Time-dependent Uptake by Rice(%) (Mean ± S.D.(n = 3)) after 6 hrs (rice plants [3]): 7.8 ± 0.4%
Time-dependent Uptake by Rice(%) (Mean ± S.D.(n = 3)) after 12 hrs (rice plants [3]): 14.5 ± 1.3%
Time-dependent Uptake by Rice(%) (Mean ± S.D.(n = 3)) after 24 hrs (rice plants [3]): 29.8 ± 1.9%
absorption by the rice plants (in words) (rice plants [3]): absorbed by the rice plants at a steady rate

CCCCC(CC)COC(=O)CC(C(=O)OCC(CC)CCCC)S(=O)(=O)[O-].[Na+] (stereo not shown) [sodium dioctylsulfosuccinate]
Recovery (%) of tricyclazole (rice plants [1]): 79.1%
Uptake (%) of tricyclazole (rice plants [1]): 20.9%
Recovery (%) of dimethomorph (cucumber leaves [2]): 94.5%
Uptake (%) of dimethomorph (cucumber leaves [2]): 5.5%

Cc1cccc2sc3nncn3c12 [Tricyclazole, tricyclazole]
Recovery (%) of tricyclazole (rice plants [1]; rice): 82.4%
Uptake (%) of tricyclazole (rice plants [1]; rice): 17.6%
Time-dependent Uptake by Rice(%) (Mean ± S.D.(n = 3)) I.A. (rice plants [3]): 0 ± 1.1%
Time-dependent Uptake by Rice(%) (Mean ± S.D.(n = 3)) after 1 hr (rice plants [3]): 1.4 ± 0.7%
Time-dependent Uptake by Rice(%) (Mean ± S.D.(n = 3)) after 3 hrs (rice plants [3]): 1.1 ± 1.5%
Time-dependent Uptake by Rice(%) (Mean ± S.D.(n = 3)) after 6 hrs (rice plants [3]): 2.0 ± 1.4%
Time-dependent Uptake by Rice(%) (Mean ± S.D.(n = 3)) after 12 hrs (rice plants [3]): 4.1 ± 0.5%
Time-dependent Uptake by Rice(%) (Mean ± S.D.(n = 3)) after 24 hrs (rice plants [3]): 11.0 ± 0.9%
absorption by the rice plants (in words) (rice plants [3]): absorbed by the rice plants at a steady rate

COc1ccc(C(=CC(=O)N2CCOCC2)c2ccc(Cl)cc2)cc1OC [Dimethomorph, dimethomorph]
Time-dependent Uptake by Cucumber(%) (Mean ± S.D.(n = 3)) I.A. (cucumber leaves [4]): 0 ± 0.7%
Uptake (%) of dimethomorph [5]: 0.0%

CC12CC1(C)C(=O)N(c1cc(Cl)cc(Cl)c1)C2=O (stereo not shown) [Procymidone, procymidone]
Time-dependent Uptake by Cucumber(%) (Mean ± S.D.(n = 3)) I.A. (cucumber leaves [4]): 0 ± 0.8%

tridecyl alcohol ethoxylate [tridecyl alcohol ethoxylate(5)]
Recovery (%) of tricyclazole (rice plants [1]): 75.6%
Uptake (%) of tricyclazole (rice plants [1]): 24.4%
Recovery (%) of dimethomorph (cucumber leaves [2]): 98.0%
Uptake (%) of dimethomorph (cucumber leaves [2]): 2.0%

CC(C)OC(=O)C(C(=O)OC(C)C)=C1SCCS1 [Isoprothiolane, isoprothiolane]
Time-dependent Uptake by Rice(%) (Mean ± S.D.(n = 3)) I.A. (rice plants [3]): 0 ± 1.0%
Time-dependent Uptake by Rice(%) (Mean ± S.D.(n = 3)) after 1 hr (rice plants [3]): 7.9 ± 1.9%
Time-dependent Uptake by Rice(%) (Mean ± S.D.(n = 3)) after 3 hrs (rice plants [3]): 11.6 ± 1.2%
Time-dependent Uptake by Rice(%) (Mean ± S.D.(n = 3)) after 6 hrs (rice plants [3]): 16.1 ± 1.3%
Time-dependent Uptake by Rice(%) (Mean ± S.D.(n = 3)) after 12 hrs (rice plants [3]): 27.8 ± 1.1%
Time-dependent Uptake by Rice(%) (Mean ± S.D.(n = 3)) after 24 hrs (rice plants [3]): 47.1 ± 2.5%
absorption by the rice plants (in words) (rice plants [3]): absorbed by the rice plants at a steady rate

OC(c1ccc(Cl)cc1)(c1cncnc1)c1ccccc1Cl (stereo not shown) [Fenarimol, fenarimol]
Time-dependent Uptake by Cucumber(%) (Mean ± S.D.(n = 3)) after 1 hr (cucumber leaves [6]; 1 hr after spraying, stored in the dark, dimethomorph with 0.1% stearylamine ethoxylate): 2.0 ± 8.1%
Time-dependent Uptake by Cucumber(%) (Mean ± S.D.(n = 3)) after 3 hrs (cucumber leaves [6]; 3 hrs after spraying, stored in the dark, dimethomorph with 0.1% stearylamine ethoxylate): 3.2 ± 1.8%
Time-dependent Uptake by Cucumber(%) (Mean ± S.D.(n = 3)) after 6 hrs (cucumber leaves [6]; 6 hrs after spraying, stored in the dark, dimethomorph with 0.1% stearylamine ethoxylate): 5.2 ± 2.5%
Time-dependent Uptake by Cucumber(%) (Mean ± S.D.(n = 3)) after 12 hrs (cucumber leaves [6]; 12 hrs after spraying, stored in the dark, dimethomorph with 0.1% stearylamine ethoxylate): 8.0 ± 4.1%
Time-dependent Uptake by Cucumber(%) (Mean ± S.D.(n = 3)) after 24 hrs (cucumber leaves [6]; stored in the dark, dimethomorph with 0.1% stearylamine ethoxylate): 15.1 ± 4.0%
Time-dependent Uptake by Cucumber(%) (Mean ± S.D.(n = 3)) after 24 hrs (cucumber leaves [6]; stored in the dark, dimethomorph with 0.1% stearylamine ethoxylate, listed as fenarimol): 15.1%
Time-dependent Uptake by Cucumber(%) (Mean ± S.D.(n = 3)) I.A. (cucumber leaves [6]; immediately after the spraying, 80 l/ha, dimethomorph solution with 0.1% stearylamine ethoxylate): 0 ± 3.1%
